For the experiment, the target named is T1, PKB-PIF fusion protein (Homo sapiens, UniProt P31751).
T1 construct: made in house
Nature of the experiment: Measurement of PKB kinase inhibitory activity (IC50), radiometric filter plate assay. It counts as biochemical. The conditions noted are these: 0.6 nM enzyme, 30 μM ATP, 25 μM AKTide-2T substrate, 20 minutes. The protocol:
The reaction is allowed to proceed for 20 minutes before addition of excess orthophosphoric acid to quench activity. The reaction mixture is transferred to a phosphocellulose filter plate where the peptide binds and the unused ATP is washed away. After washing, scintillant is added and the incorporated activity measured by scintillation counting.

These results are taken from patent US9283226B2, “Pyrazole derivatives as protein kinase modulators” (Astex Therapeutics Ltd, priority 2003, dated 2016).

T1 sequence (P31751 with tags, fused parts or gaps limits assumed): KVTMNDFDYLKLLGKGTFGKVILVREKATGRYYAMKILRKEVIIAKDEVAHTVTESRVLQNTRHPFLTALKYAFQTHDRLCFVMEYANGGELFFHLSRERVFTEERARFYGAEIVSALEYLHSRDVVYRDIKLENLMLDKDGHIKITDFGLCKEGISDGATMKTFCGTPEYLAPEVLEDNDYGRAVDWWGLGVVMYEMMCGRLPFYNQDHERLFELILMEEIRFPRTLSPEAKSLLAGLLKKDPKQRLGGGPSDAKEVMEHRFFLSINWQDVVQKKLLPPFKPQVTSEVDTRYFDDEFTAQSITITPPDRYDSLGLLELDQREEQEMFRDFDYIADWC

A word on the IC50: it is the midpoint of a concentration-inhibition curve. Low readings indicate greater potency in that assay, high ones weaker potency in that assay. Turning to `CNC[C@@H](c1ccc(Cl)cc1)c1ccc(-c2cn[nH]c2)cc1` [Example 22, {2-(4-Chloro-phenyl)-2-[4-(1H-pyrazol-4-yl)-phenyl]-ethyl}-methyl-amine (R)], the IC50 was below 1000 nM.

For the compound `CNCC(c1ccccc1)c1ccc(-c2c[nH]nc2C)nc1` (centres unmarked) [Example 60], the IC50 was below 5000 nM.
